According to patent US11214803B2, “Modulators of YAP1 expression” (Ionis Pharmaceuticals, Inc., priority 2019, dated 2022):
Strand notation (5' to 3'): a small letter for the sugar, then the base; units joined by * are phosphorothioate-linked, units joined directly phosphodiester-linked; [ ] holds rarer units or linkages, { } end groups; capitals alone tell only the bases. k = constrained ethyl (cEt); [5mC] = 5-methylcytosine; d = 2'-deoxy (DNA)

Tested on: Yap1 mRNA
Assay: Antisense inhibition of human Yap1 in A-431 cells by cEt gapmers, single dose (Example 2, RTS4814)
Assay type: cell-based
Conditions: A-431 cells, 5,000 cells per well, free uptake, 2,000 nM modified oligonucleotide, approx. 48 hours, RTS4814, normalized to RIBOGREEN; Table 4; asterisk (*) = targets amplicon region of primer probe set
In short: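 Free uptake, 2,000 nM, ~48 h, A-431 at 5,000 cells/well. Readout: RT-qPCR (RTS4814), RIBOGREEN-normalized, % UTC. 16-mer 3-10-3 cEt gapmers, full PS backbone, all C as 5-methylcytosine.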

Substance	YAP1 (% UTC)
716397 (kG*kG*k[5mC]*d[5mC]*dT*d[5mC]*dA*d[5mC]*d[5mC]*dT*dG*d[5mC]*d[5mC]*kG*kA*kA; antisense) [Compound 716397]	88
716370 (k[5mC]*kA*kG*dT*dG*d[5mC]*d[5mC]*dT*dG*d[5mC]*dA*dT*d[5mC]*kA*kG*kT; antisense) [Compound 716370]	25

Same assay, conditions: Table 5; A-431 cells, 5,000 cells per well, free uptake, 2,000 nM modified oligonucleotide, approx. 48 hours; RTS4814; normalized to RIBOGREEN; Yap1 mRNA relative to untreated control cells

Substance	YAP1 (% UTC)
716356 (k[5mC]*kG*kA*dG*dG*dT*dG*dG*dA*dG*dA*dA*dG*k[5mC]*kG*kG; antisense) [Compound 716356]	112
716419 (kT*kT*kT*d[5mC]*d[5mC]*dG*dG*dT*dG*d[5mC]*dA*dT*dG*kT*kG*kT; antisense) [Compound 716419]	36
716539 (antisense kA*kA*kT*dA*dG*dT*dG*d[5mC]*dT*dT*dT*dG*dG*kA*kA*kG) [Compound 716539]	59
716347 (kT*kG*k[5mC]*d[5mC]*dT*dT*dT*d[5mC]*d[5mC]*d[5mC]*d[5mC]*dG*d[5mC]*k[5mC]*kT*k[5mC]; antisense) [Compound 716347]	85

Same assay, conditions: Table 6; A-431 cells, 5,000 cells per well, free uptake, 2,000 nM modified oligonucleotide, approx. 48 hours; RTS4814; normalized to RIBOGREEN; Yap1 mRNA relative to untreated control cells

Substance	YAP1 (% UTC)
716519 (antisense kG*kT*kT*dT*dA*dT*dA*dA*dA*dG*dT*dT*d[5mC]*kT*k[5mC]*kT) [Compound 716519]	57
716474 (kT*kA*kA*dA*dT*dG*dA*dA*dG*dG*dT*dA*dA*kA*k[5mC]*k[5mC]; antisense) [Compound 716474]	120
716546 (k[5mC]*kA*k[5mC]*dA*dA*dT*dT*dA*dA*dT*dT*dA*d[5mC]*kT*kG*kT; antisense) [Compound 716546]	103

Same assay, conditions: Table 18; A-431 cells, 5,000 cells per well, free uptake, 2,000 nM modified oligonucleotide, approx. 48 hours; RTS4814; normalized to RIBOGREEN; Yap1 mRNA as percent of untreated control

Substance	YAP1 (% UTC)
1076100 (kA*kA*kT*dA*dA*dG*dG*dG*dA*d[5mC]*dT*dA*d[5mC]*kT*kT*kT; antisense) [Compound 1076100]	65
1075108 (antisense k[5mC]*kT*kA*dA*dA*dA*dA*d[5mC]*dA*dT*dT*dG*dT*kG*kG*k[5mC]) [Compound 1075108]	67
1075140 (antisense k[5mC]*kT*kT*dT*dA*dG*dG*dT*dT*dA*dA*dG*d[5mC]*kA*kA*kT) [Compound 1075140]	86
1075268 (antisense kT*kA*kT*dT*dA*dA*d[5mC]*d[5mC]*dT*dG*dG*dA*dG*kA*kG*kT) [Compound 1075268]	47

Same assay, conditions: Table 19; A-431 cells, 5,000 cells per well, free uptake, 2,000 nM modified oligonucleotide, approx. 48 hours; RTS4814; normalized to RIBOGREEN; Yap1 mRNA as percent of untreated control

Substance	YAP1 (% UTC)
1075973 (k[5mC]*k[5mC]*kG*d[5mC]*dA*dA*d[5mC]*dA*d[5mC]*d[5mC]*dA*dT*dT*k[5mC]*kT*kT; antisense) [Compound 1075973]	8
1075333 (kA*kG*kT*dT*dA*dA*d[5mC]*dA*dA*dA*dG*d[5mC]*dG*kG*kG*kT; antisense) [Compound 1075333]	14
1074597 (antisense kA*kG*kT*dA*dT*dT*d[5mC]*dT*dA*dT*d[5mC]*d[5mC]*dA*kG*kG*kG) [Compound 1074597]	5
1076389 (kA*kT*k[5mC]*dG*dA*dA*dA*dT*dA*dT*dT*d[5mC]*dG*kA*kG*kA; antisense) [Compound 1076389]	76

Same assay, conditions: Table 20; Yap1 mRNA, percent of untreated control; 3-10-3 cEt gapmers targeting SEQ ID NO.: 1 and 2

Substance	YAP1 (% UTC)
1075686 (kG*kT*kA*dA*dT*dT*dA*d[5mC]*dA*dG*dT*dG*dT*k[5mC]*kT*k[5mC]; antisense) [Compound 1075686]	10
1075206 (antisense kT*kA*kT*dT*dA*dA*dA*dT*dG*dA*dG*d[5mC]*dA*k[5mC]*k[5mC]*kA) [Compound 1075206]	36
1075334 (kT*kT*kA*dA*dT*dA*dA*dT*d[5mC]*dT*dA*d[5mC]*d[5mC]*kA*kG*kT; antisense) [Compound 1075334]	60
1074118 (antisense k[5mC]*kA*k[5mC]*dT*d[5mC]*dG*dG*dA*d[5mC]*d[5mC]*dT*dG*d[5mC]*kG*kG*k[5mC]) [Compound 1074118]	66
1075718 (k[5mC]*k[5mC]*kA*d[5mC]*dT*dA*dA*dA*dA*d[5mC]*d[5mC]*dA*dA*kG*kT*kT; antisense) [Compound 1075718]	48
1076166 (kA*kT*kT*dT*dA*d[5mC]*dA*d[5mC]*d[5mC]*dA*d[5mC]*d[5mC]*dG*k[5mC]*k[5mC]*k[5mC]; antisense) [Compound 1076166]	77
1075046 (antisense kA*kA*kA*dA*dT*dT*dA*dG*dA*d[5mC]*dT*d[5mC]*d[5mC]*k[5mC]*k[5mC]*k[5mC]) [Compound 1075046]	12

Same assay, conditions: Table 21; Yap1 mRNA, percent of untreated control; 3-10-3 cEt gapmers targeting SEQ ID NO.: 1 and 2

Substance	YAP1 (% UTC)
1075623 (k[5mC]*kA*kT*dA*dA*dT*d[5mC]*dA*dA*dA*dA*dT*dG*kG*kG*k[5mC]; antisense) [Compound 1075623]	48

Same assay, conditions: Table 22; Yap1 mRNA as percent of untreated control; 3-10-3 cEt gapmers; single dose

Substance	YAP1 (% UTC)
1075208 (antisense kA*k[5mC]*kT*dG*dA*dA*d[5mC]*dA*d[5mC]*dA*dG*dG*d[5mC]*kT*kA*k[5mC]) [Compound 1075208]	24

Same assay, conditions: Table 23; Yap1 mRNA as percent of untreated control; 3-10-3 cEt gapmers; single dose

Substance	YAP1 (% UTC)
1074473 (k[5mC]*kA*kA*d[5mC]*d[5mC]*d[5mC]*d[5mC]*d[5mC]*d[5mC]*d[5mC]*dA*d[5mC]*d[5mC]*kG*kA*k[5mC]; antisense) [Compound 1074473]	82

Same assay, conditions: Table 25; Yap1 mRNA as percent of untreated control; 3-10-3 cEt gapmers targeting SEQ ID NO.: 1, and 2

Substance	YAP1 (% UTC)
1074315 (antisense kG*kA*kT*dT*dG*dA*dT*dA*dT*dT*d[5mC]*d[5mC]*dG*k[5mC]*kA*kT) [Compound 1074315]	3
1076491 (antisense kA*kG*k[5mC]*d[5mC]*dA*dA*dA*dA*dT*dA*dG*dG*dT*kG*kA*kG) [Compound 1076491]	12

Same assay, conditions: Table 32; Yap1 mRNA, percent of untreated control; 3-10-3 cEt gapmers targeting SEQ ID NO.: 1, and 2

Substance	YAP1 (% UTC)
1074258 (antisense kA*kT*kA*dT*dT*d[5mC]*dT*dG*d[5mC]*dT*dG*d[5mC]*dA*k[5mC]*kT*kG) [compound 1074258]	36
1075602 (antisense kT*kA*kT*dT*dA*dT*dA*dA*dG*dT*d[5mC]*dT*dA*k[5mC]*kA*kA) [compound 1075602]	114
1076338 (antisense k[5mC]*kA*kT*dT*dA*dA*dA*d[5mC]*d[5mC]*dA*dG*dG*dG*kA*k[5mC]*kT) [compound 1076338]	33

Same assay, conditions: Table 33; Yap1 mRNA, percent of untreated control; 3-10-3 cEt gapmers targeting SEQ ID NO.: 1, and 2

Substance	YAP1 (% UTC)
1074131 (kG*kG*k[5mC]*d[5mC]*d[5mC]*d[5mC]*dG*d[5mC]*dA*dT*d[5mC]*d[5mC]*d[5mC]*k[5mC]*k[5mC]*kG; antisense) [compound 1074131]	72
1076307 (kG*kT*kA*dA*dT*dT*dA*d[5mC]*d[5mC]*dT*d[5mC]*dT*dA*kA*kT*k[5mC]; antisense) [compound 1076307]	38
1076563 (k[5mC]*kA*kA*dA*dG*dT*dA*dA*dT*dT*dA*dA*dA*k[5mC]*kG*kA; antisense) [compound 1076563]	91
1075059 (antisense kA*kT*kT*dT*dA*d[5mC]*dT*dT*dT*dG*dG*dA*dT*kG*kT*k[5mC]) [compound 1075059]	11
1075091 (kA*kA*kA*d[5mC]*dA*dA*d[5mC]*dG*dA*dA*dT*dG*dA*kT*kT*kG; antisense) [compound 1075091]	65
1074707 (antisense kT*kT*kT*dA*dA*dT*dG*dG*d[5mC]*dA*dG*d[5mC]*dA*k[5mC]*kG*kG) [compound 1074707]	36
1075731 (k[5mC]*k[5mC]*k[5mC]*d[5mC]*dA*dA*dT*dA*dT*dT*dA*dT*d[5mC]*kT*kA*k[5mC]; antisense) [compound 1075731]	40

Same assay, conditions: Yap1 mRNA as percent of untreated control; A-431 cells; 3-10-3 cEt gapmers targeting SEQ ID NO.: 1, and 2; Table 30

Substance	YAP1 (% UTC)
1074160 (kG*k[5mC]*kG*dA*dG*d[5mC]*dG*dA*dG*dG*dG*d[5mC]*dT*kA*k[5mC]*kG; antisense) [compound 1074160]	86
1075664 (antisense kG*k[5mC]*kT*dA*dA*dA*dT*dA*dG*dG*dT*dG*dG*kT*kT*kA) [compound 1075664]	87

Same assay, conditions: Yap1 mRNA as percent of untreated control; A-431 cells; 3-10-3 cEt gapmers targeting SEQ ID NO.: 1, and 2; Table 31

Substance	YAP1 (% UTC)
1075761 (kG*kG*kA*dG*dA*dA*dA*dA*dA*d[5mC]*dT*dA*d[5mC]*kG*kG*kA; antisense) [compound 1075761]	13
